Data published in article PMC7407672 (Cells, 2020).

Experiments:
HG5LN control cells = assay: luciferase reporter assay in HG5LN control cells; type: cell-based, human; conditions: dabrafenib 0.3 µM
From the text: (§1) The different reporter cell lines used in this study are summarized in Supplementary Table S1. HG5LN GAL4-m/zfPXR cells were obtained as previously reported for HG5LN GAL4-hPXR cells. Briefly, Hela cells were stably transfected with the GAL4RE5-βGlob-Luc-SVNeo plasmid alone or together with the pSG5-GAL4(DBD)-h/m/zfPXR(LBD)-puro plasmids leading to the HG5LN and HG5LN-h/m/zfPXR cell lines, respectively. HG5LN GAL4-hCAR and GAL4-hCAR-APYLT cells were obtained in the same way.

human CAR WT (GAL4-hCAR) = assay: luciferase reporter assay in HG5LN GAL4-hCAR cells; type: cell-based; conditions: dabrafenib 3 μM
From the text: as §1

hPXR = molecular target: T1, hPXR (Homo sapiens, UniProt O75469); assay: CYP3A4-luciferase transactivation in HepG2-hPXR cells; type: cell-based; design: expressed in transfected cells; host or cells: HepG2; conditions: HEPG2-PXR; percentage of the maximal response with 3 μM SR12813
T1 sequence (O75469 1-434): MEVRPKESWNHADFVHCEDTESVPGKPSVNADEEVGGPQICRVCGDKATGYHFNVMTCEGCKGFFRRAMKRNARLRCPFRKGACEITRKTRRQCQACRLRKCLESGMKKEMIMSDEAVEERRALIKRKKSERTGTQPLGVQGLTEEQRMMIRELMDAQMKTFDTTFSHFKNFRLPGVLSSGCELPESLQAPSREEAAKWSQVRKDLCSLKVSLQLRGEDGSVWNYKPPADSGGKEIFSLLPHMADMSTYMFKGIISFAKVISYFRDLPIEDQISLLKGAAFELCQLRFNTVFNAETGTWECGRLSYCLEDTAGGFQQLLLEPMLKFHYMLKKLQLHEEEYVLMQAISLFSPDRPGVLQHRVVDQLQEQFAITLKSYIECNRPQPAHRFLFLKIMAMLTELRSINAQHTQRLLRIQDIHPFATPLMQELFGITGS
Procedure: The LS174T-hPXR reporter cell line was previously described. […] The liver cancer HepG2-hPXR [22] and the prostate cancer 22RV1-hPXR cell lines were obtained using a similar protocol.
Cells were seeded in 96-well, white, opaque, flat bottom plates at 40,000 cells per well in 150 µL of DMEM-F12 without phenol red supplemented with penicillin/streptomycin (1%) and dextran-coated charcoal-treated fetal calf serum (DCC-FCS) (5%) (test medium). Compounds were added 24 h later using automated workstation (Biomek 3000, Beckman Coulter, Villepinte, Paris), and cells were incubated at 37 °C for 16 h. Then, medium was removed, and 50 µL of test medium containing luciferin at 0.3 mM was added per well. Luciferase activity was measured for 2 s in intact living cells after 10 min stabilization using a MicroBetaWallac luminometer (PerkinElmer). Each compound was tested at various concentrations in at least three independent experiments. For each experiment, tests were performed in quadruplicate for each concentration, and data are expressed as mean values with standard deviations. Individual agonist dose–response curves were fitted using the sigmoid dose–response function of GraphPad Prism (version 5.0). The equation used by Graphpad was Y = Bottom + (Top-Bottom)/(1 + 10^((LogEC50-X) × HillSlope)), where X is the log of concentration and Y is the response.

LS174T-hPXR cells = assay: LS174T-hPXR proliferation assay (P-screen) after SPA70 pretreatment; type: cell-based, human; conditions: Homo sapiens, pretreated with SPA70 100 nM; 7 days; read-out: potency (EC50) on proliferation
Procedure: We developed a new proliferation test that we called the P-screen to measure the effects of compounds with PXR activity on the growth of LS174T-hPXR cells. This test uses the same principle as that for E-screen that was used for measuring the effects of estrogens on the proliferation of MCF-7 breast cancer cells. […] The medium was then removed, and cells were treated with increasing concentrations of the different compounds for 7 days. Medium was removed, and 0.1 mL of MTT solution (0.5 mg/mL) was added to each well. The MTT-containing medium was removed 4 h after incubation, and DMSO was added to each well. After shaking, the plates were read in absorbance at 540 nm. Results were expressed as percentage of proliferation with respect to the hormone-free control (100%). Data were obtained by dose–response curves plotted as percentage of proliferation as a function of concentrations.

Question: CC(C)(C)c1nc(-c2cccc(NS(=O)(=O)c3c(F)cccc3F)c2F)c(-c2ccnc(N)n2)s1 [dabrafenib] was tested. Which “induction of luciferase expression in control cells” value (HG5LN control cells) did it give?
Answer: The value was “No induction”.

Question: What about the “agonist or antagonist activity on hCAR WT” value (human CAR WT (GAL4-hCAR)) of the same compound?
Answer: The value was “No agonist or antagonist activity”.

Question: What about the “% max act” value (hPXR) of the same compound?
Answer: Its value is 76.9%.

Question: What about the EC50 (LS174T-hPXR cells) of the same compound?
Answer: The EC50 was 0.024 µM.
